Assays:
[1] = test system: RAW264.7; experiment: Inhibition of LPS-induced NF-kappaB transcriptional activity in mouse RAW264.7 cells at 100 uM; type: cell-based
[2] = Inhibition of LPS-induced NF-kappaB transcriptional activity in mouse RAW264.7 cells; type: cell-based
[3] = test system: NCI-H23; experiment: Cytotoxicity against human NCI-H23 cells; type: functional
[4] = test system: PC-3; experiment: Cytotoxicity against human PC3 cells; type: functional
[5] = test system: HCT-15; experiment: Cytotoxicity against human HCT15 cells; type: functional
[6] = test system: NUGC-3; experiment: Cytotoxicity against human NUGC3 cells; type: functional
[7] = test system: MDA-MB-231; experiment: Cytotoxicity against human MDA-MB-231 cells; type: functional
[8] = test system: ACHN; experiment: Cytotoxicity against human ACHN cells; type: functional

Structure (SMILES)	IC50 [2]	inhibition [1]	GI50 [3]	GI50 [4]	GI50 [5]	GI50 [6]	GI50 [7]	GI50 [8]
COc1cc(NC(=O)C2Cc3ccccc3N2C(=O)OC(C)(C)C)cc(OC)c1 (stereo not given)	–	88%	–	–	–	–	–	–
COc1ccccc1NC(=O)C1Cc2ccccc2N1C(=O)OC(C)(C)C (stereo not given)	–	76%	–	–	–	–	–	–
CC(C)(C)OC(=O)N1c2ccccc2CC1C(=O)Nc1cccc(Cl)c1 (stereo not given)	–	> 100%	3.23 µM	–	–	–	–	–
CC(C)(C)OC(=O)N1c2ccccc2CC1C(=O)Nc1ccccc1C(F)(F)F (stereo not given)	> 100 µM	38%	–	–	–	–	–	–
O=C(Nc1ccccc1C(F)(F)F)C1Cc2ccccc2N1 (stereo not given)	79.4 µM	61%	–	–	–	–	–	–
CC(C)(C)OC(=O)N1c2ccccc2CC1C(=O)Nc1cccc(C(F)(F)F)c1 (stereo not given)	–	> 100%	6.34 µM	3.34 µM	–	–	–	–
COc1cccc(NC(=O)C2Cc3ccccc3N2C(=O)OC(C)(C)C)c1 (stereo not given)	> 100 µM	38%	–	–	–	–	–	–
CCCCCCCCC(=O)N1c2ccccc2CC1C(=O)Nc1ccc(C(F)(F)F)cc1 (stereo not given)	> 100 µM	–	1.62 µM	1.86 µM	2.07 µM	3.45 µM	> 10 µM	3.78 µM
COc1cc(NC(=O)C2Cc3ccccc3N2)cc(OC)c1 (stereo not given)	> 100 µM	41%	–	–	–	–	–	–
CC(C)(C)OC(=O)N1c2ccccc2CC1C(=O)Nc1ccc(Cl)cc1 (stereo not given)	> 100 µM	31%	–	–	–	–	–	–
CC(C)(C)OC(=O)N1c2ccccc2CC1C(=O)Nc1ccc(O)cc1 (stereo not given)	> 100 µM	42%	–	–	–	–	–	–
Cc1ccc(NC(=O)C2Cc3ccccc3N2)cc1 (stereo not given)	> 100 µM	41%	–	–	–	–	–	–
O=C(Nc1cccc([N+](=O)[O-])c1)C1Cc2ccccc2N1 (stereo not given)	> 100 µM	49%	–	–	–	–	–	–
CC(C)(C)OC(=O)N1c2ccccc2CC1C(=O)Nc1ccccc1O (stereo not given)	–	93%	–	–	–	–	–	–
CC(C)(C)OC(=O)N1c2ccccc2CC1C(=O)Nc1ccccc1 (stereo not given)	> 100 µM	30%	–	–	–	–	–	–
O=C(Nc1ccccc1[N+](=O)[O-])C1Cc2ccccc2N1 (stereo not given)	> 100 µM	41%	–	–	–	–	–	–
CC(C)(C)OC(=O)N1c2ccccc2CC1C(=O)Nc1ccccc1[N+](=O)[O-] (stereo not given)	–	63%	–	–	–	–	–	–
Cc1ccc(S(=O)(=O)N2c3ccccc3CC2C(=O)Nc2ccc(C(F)(F)F)cc2)cc1 (stereo not given)	> 100 µM	–	8.97 µM	6.68 µM	> 10 µM	> 10 µM	> 10 µM	> 10 µM
Cc1ccccc1NC(=O)C1Cc2ccccc2N1 (stereo not given)	> 100 µM	39%	–	–	–	–	–	–
CC(C)(C)OC(=O)N1c2ccccc2CC1C(=O)Nc1ccccc1Cl (stereo not given)	–	50%	–	–	–	–	–	–
COc1ccc(NC(=O)C2Cc3ccccc3N2)cc1OC (stereo not given)	> 100 µM	15%	–	–	–	–	–	–
Cc1cccc(NC(=O)C2Cc3ccccc3N2C(=O)OC(C)(C)C)c1 (stereo not given)	–	87%	–	–	–	–	–	–

Structure (SMILES)	IC50 [2]	inhibition [1]	GI50 [3]	GI50 [4]	GI50 [5]	GI50 [6]	GI50 [7]	GI50 [8]
O=C(Nc1ccc([N+](=O)[O-])cc1)C1Cc2ccccc2N1 (stereo not given)	> 100 µM	41%	–	–	–	–	–	–
O=C(Nc1cc(Cl)cc(Cl)c1)C1Cc2ccccc2N1 (stereo not given)	–	98%	12.3 µM	2.53 µM	–	–	–	–
O=C(Nc1cccc(O)c1)C1Cc2ccccc2N1 (stereo not given)	> 100 µM	30%	–	–	–	–	–	–
Cc1cc(C)cc(NC(=O)C2Cc3ccccc3N2)c1 (stereo not given)	85 µM	56%	–	–	–	–	–	–
COc1ccc(OC)c(NC(=O)C2Cc3ccccc3N2C(=O)OC(C)(C)C)c1 (stereo not given)	–	76%	–	–	–	–	–	–
COc1cccc2c1C(=O)c1c(O)c3c(c(O)c1C2=O)C[C@@](O)(C(=O)CO)C[C@@H]3O[C@H]1C[C@H](N)[C@H](O)[C@H](C)O1 [DOXORUBICIN]	–	–	0.178 µM	0.317 µM	2.18 µM	0.202 µM	0.194 µM	0.182 µM
Cc1ccc(S(=O)(=O)N2c3ccccc3CC2C(=O)Nc2cc(Cl)cc(Cl)c2)cc1 (stereo not given)	> 100 µM	–	7.53 µM	> 10 µM	> 10 µM	> 10 µM	> 10 µM	> 10 µM
Cc1ccc(NC(=O)C2Cc3ccccc3N2C(=O)OC(C)(C)C)cc1 (stereo not given)	> 100 µM	37%	–	–	–	–	–	–
O=C(Nc1cccc(Cl)c1)C1Cc2ccccc2N1 (stereo not given)	–	63%	–	–	–	–	–	–
Cc1ccc(C)c(NC(=O)C2Cc3ccccc3N2)c1 (stereo not given)	> 100 µM	47%	–	–	–	–	–	–
CC(=O)N1c2ccccc2CC1C(=O)Nc1ccc(C(F)(F)F)cc1 (stereo not given)	> 100 µM	–	> 10 µM	> 10 µM	> 10 µM	> 10 µM	> 10 µM	> 10 µM
COc1cccc(NC(=O)C2Cc3ccccc3N2)c1 (stereo not given)	–	64%	–	–	–	–	–	–
COc1ccc(NC(=O)C2Cc3ccccc3N2C(=O)OC(C)(C)C)cc1 (stereo not given)	> 100 µM	29%	–	–	–	–	–	–
O=C(Nc1ccccc1O)C1Cc2ccccc2N1 (stereo not given)	> 100 µM	37%	–	–	–	–	–	–
O=C(Nc1ccc(Cl)c(Cl)c1)C1Cc2ccccc2N1 (stereo not given)	–	72%	11.6 µM	–	–	–	–	–
Cc1ccc(NC(=O)C2Cc3ccccc3N2C(=O)OC(C)(C)C)cc1C (stereo not given)	–	64%	–	–	–	–	–	–
O=C(Nc1cc(Cl)ccc1Cl)C1Cc2ccccc2N1 (stereo not given)	> 100 µM	34%	–	–	–	–	–	–
Cc1cccc(NC(=O)C2Cc3ccccc3N2)c1 (stereo not given)	> 100 µM	29%	–	–	–	–	–	–
CC(C)(C)OC(=O)N1c2ccccc2CC1C(=O)Nc1ccc([N+](=O)[O-])cc1 (stereo not given)	–	> 100%	2.52 µM	2.79 µM	–	–	–	–
COc1ccc(OC)c(NC(=O)C2Cc3ccccc3N2)c1 (stereo not given)	> 100 µM	47%	–	–	–	–	–	–
COc1ccc(NC(=O)C2Cc3ccccc3N2)cc1 (stereo not given)	> 100 µM	37%	–	–	–	–	–	–

Now from value to compound, other results behind:

IC50 [2]	Structure (SMILES)	inhibition [1]	GI50 [3]	GI50 [4]	GI50 [5]	GI50 [6]	GI50 [7]	GI50 [8]
79.2 µM	O=C(Nc1ccc(C(F)(F)F)cc1)C1Cc2ccccc2N1 (stereo not given)	56%	–	–	–	–	–	–
14.9 µM	CC(C)(C)OC(=O)N1c2ccccc2CC1C(=O)Nc1cc(C(F)(F)F)cc(C(F)(F)F)c1 (stereo not given)	–	1.52 µM	0.838 µM	–	–	–	–
12 µM	CC(C)(C)OC(=O)N1c2ccccc2CC1C(=O)Nc1ccc(C(F)(F)F)cc1 (stereo not given)	> 100%	3.21 µM	2.02 µM	–	–	–	–
12 µM	O=C(Nc1cc(C(F)(F)F)cc(C(F)(F)F)c1)C1Cc2ccccc2N1 (stereo not given)	96%	0.648 µM	0.794 µM	–	–	–	–
13.5 µM	O=C(Nc1ccc(C(F)(F)F)cc1)C1Cc2ccccc2N1C(=O)c1ccccc1 (stereo not given)	–	4.58 µM	–	5.49 µM	8.72 µM	–	–
69.7 µM	O=C(Nc1ccccc1Cl)C1Cc2ccccc2N1 (stereo not given)	62%	–	–	–	–	–	–
12.6 µM	CCCCCCCCC(=O)N1c2ccccc2CC1C(=O)Nc1cc(Cl)cc(Cl)c1 (stereo not given)	–	1.28 µM	1.61 µM	1.73 µM	1.52 µM	3.57 µM	1.89 µM
66.2 µM	O=C(Nc1ccc(O)cc1)C1Cc2ccccc2N1 (stereo not given)	63%	–	–	–	–	–	–
34.1 µM	CC(=O)N1c2ccccc2CC1C(=O)Nc1cc(Cl)cc(Cl)c1 (stereo not given)	–	7.68 µM	6.37 µM	8.68 µM	7.86 µM	> 10 µM	> 10 µM
52.2 µM	COc1ccc(NC(=O)C2Cc3ccccc3N2C(=O)OC(C)(C)C)cc1OC (stereo not given)	65%	–	–	–	–	–	–
16.6 µM	Cc1cc(C)cc(NC(=O)C2Cc3ccccc3N2C(=O)OC(C)(C)C)c1 (stereo not given)	78%	–	–	–	–	–	–
79.2 µM	COc1ccccc1NC(=O)C1Cc2ccccc2N1 (stereo not given)	60%	–	–	–	–	–	–
14.5 µM	CC(C)(C)C(=O)N1c2ccccc2CC1C(=O)Nc1cc(Cl)cc(Cl)c1 (stereo not given)	–	3.46 µM	4.18 µM	3.81 µM	3.35 µM	4.97 µM	3.68 µM
46.5 µM	O=C(Nc1cc(Cl)cc(Cl)c1)C1Cc2ccccc2N1C(=O)c1ccccc1 (stereo not given)	–	4.28 µM	6.84 µM	–	7.97 µM	6.42 µM	8.26 µM
12.7 µM	CC(C)(C)C(=O)N1c2ccccc2CC1C(=O)Nc1ccc(C(F)(F)F)cc1 (stereo not given)	–	3.65 µM	3.89 µM	5.54 µM	6.58 µM	7.31 µM	5.63 µM
58.7 µM	CC(C)(C)OC(=O)N1c2ccccc2CC1C(=O)Nc1cccc(O)c1 (stereo not given)	75%	–	–	–	–	–	–
71.6 µM	O=C(Nc1ccccc1)C1Cc2ccccc2N1 (stereo not given)	65%	–	–	–	–	–	–
70.7 µM	O=C(Nc1ccc(Cl)cc1)C1Cc2ccccc2N1 (stereo not given)	62%	–	–	–	–	–	–
10.1 µM	CC(C)(C)OC(=O)N1c2ccccc2CC1C(=O)Nc1cc(Cl)cc(Cl)c1 (stereo not given)	–	3.39 µM	1.68 µM	–	–	–	–
43.3 µM	Cc1ccc(NC(=O)C2Cc3ccccc3N2)cc1C (stereo not given)	87%	–	–	–	–	–	–
14.1 µM	CC(C)(C)OC(=O)N1c2ccccc2CC1C(=O)Nc1cccc([N+](=O)[O-])c1 (stereo not given)	94%	–	–	–	–	–	–
45.9 µM	CC(C)(C)OC(=O)N1c2ccccc2CC1C(=O)Nc1cc(Cl)ccc1Cl (stereo not given)	71%	–	–	–	–	–	–
5.9 µM	CC(NC(=O)OC(C)(C)C)C(=O)N1c2ccccc2CC1C(=O)Nc1cc(Cl)cc(Cl)c1 (stereo not given)	–	6.71 µM	4.43 µM	4.33 µM	6.21 µM	–	5.04 µM
40.1 µM	COc1cc2c(cc1O)CCC(C(=O)Nc1ccccc1)O2 (stereo not given)	90%	9.32 µM	–	–	–	–	–
62.5 µM	Cc1ccccc1NC(=O)C1Cc2ccccc2N1C(=O)OC(C)(C)C (stereo not given)	68%	–	–	–	–	–	–
46 µM	O=C(Nc1cccc(C(F)(F)F)c1)C1Cc2ccccc2N1 (stereo not given)	99%	4.96 µM	4.24 µM	–	–	–	–
12.6 µM	CC(C)(C)OC(=O)N1c2ccccc2CC1C(=O)Nc1ccc(Cl)c(Cl)c1 (stereo not given)	97%	3.19 µM	4.66 µM	–	–	–	–
50 µM	Cc1ccc(C)c(NC(=O)C2Cc3ccccc3N2C(=O)OC(C)(C)C)c1 (stereo not given)	75%	–	–	–	–	–	–
